Patent EP0173754A1, “7-THIAPROSTAGLANDIN E 1?'S AND PROCESS FOR THEIR PREPARATION” (TEIJIN LIMITED, priority 1984, dated 1985)
In brackets after ≈: the same amount, converted by molar mass.

Columns and labels:
Ethanol Ulcer = assay: Effect against ethanol ulcer in rats; format: in vivo; conditions: Rattus norvegicus, po, 1 h; P.O; SD type male rats; 75% ethanol 1 ml/kg orally 30 minutes after sample; ulcer length one hour after ethanol; read-out: Antiulcerative effect ED50
Method: SD type male rats (7 weeks old and body weight of 220 g) were abstained from food for 24 hours except giving water and then subjected to experiments.
The sample compound to be tested was dissolved in a phosphoric acid buffer (pH 7.4) containing 0.9% NaCl and the solution was orally administered to the rats. 30 minutes after the administration, 75% ethanol was orally administered to the rats at a dose of 1 ml/kg. One hour after the administration of the ethanol, the rats were killed and the ulcer formation in the stomach was examined by determining the length of the ulcer formation portion under a stereomicroscope. From this measurement, the inhibition of ulcer formation by the sample compound was calculated to determine the ED50 value.

[1] = tested on: ulcer formation induced by indomethacin; assay: Antiulcerative effect: inhibition of indomethacin-induced ulcer formation in rats; format: in vivo; conditions: Rattus norvegicus, po; P.O; Wister male rats; indomethacin 20 mg/kg orally 30 minutes after sample; ulcer length 5 hours after indomethacin
Method: The inhibiting effect on ulcer formation induced by indomethacin was examined by using rats. Wister male rats (7 weeks old and body weight of 220 g) were abstained from food for 24 hours except giving water and then subjected to experiments.
The sample compounds to be tested were dissolved in a phosphoric acid buffer (pH 7.4) containing 0.9% NaCl and the solution was orally administered to the rats. 30 minutes after the administration, indomethacin was orally administered to the rats at a dose of 20 mg/kg. 5 hours after the administration of the indomethacin, the rats were kileld and the ulcer formation in the stomach was examined by determining the length of the ulcer formation portion under a stereomicroscope. From this measurement, the inhibition of ulcer formation by the sample compounds were calculated to determine the ED50 values.

[2] = tested on: blood platelet aggregation; assay: In vitro blood platelet aggregation inhibition (ADP-induced, rabbit PRP); format: cell-based, rabbits; conditions: Oryctolagus cuniculus, 10 uM ADP (final), preincubated 37°C 2 minutes, read-out: Anti-platelet aggregation effect IC50
Excerpt: The in vitro blood platelet aggregation inhibition effect of the sample compounds to be tested was examined by using rabbits. That is, blood was collected from the ear vein of native Japanese white male domestic rabbits weighing 2.5 to 3.5 kg. The collected blood was 9 parts by volume per 1 part by volume of a 3.8% sodium citrate solution. The blood was centrifuged at 1000 r.p.m. for 10 mintues. The upper layer portion was separated as PRP (rich in platelet blood plasma). The lower layer portion was further centrifuged at 2800 r.p.m. for 10 mintues to divide it into two layers. The upper layer portion was separated as PPP (poor in platelet blood plasma). The number of the platelet was diluted with PPP to 6 to […]. […]
When the activity of the sample compounds was determined, the ethanol solution was diluted with a phosphoric acid buffer (PH 7.4). The ethanol solution diluted with the buffer was left to stand at a temperature of 0°C for 4 hours, after which the activity of the sample compounds was determined in the same manner.
The platelet aggregation inhibition was calculated by the following formula: [formula] • T : the transmittance of the system to which the phosphoric acid buffer is added • T: the transmittance of the system to which the sample compounds are added […]

**Q.** How did the ED50 (Ethanol Ulcer) turn out when `CCCCC(O)C/C=C/[C@H]1[C@H](O)CC(=O)[C@@H]1SCCCCCC(=O)OC` (stereo partly drawn) [Compound of this invention] was run?
**A.** Its ED50 is 0.018 mg/kg.

**Q.** What about the ED50 [1] of the same molecule?
**A.** Its ED50 is 0.01 mg/kg.

**Q.** And the IC50 [2]?
**A.** Its IC50 is 17 µg/mL (≈ 44 µM).
